Tests used:
Bel-7402 = experiment: Antiproliferative activity against human Bel-7402 cells after 72 hrs by SRB assay; type: functional, cell-based; conditions: Bel-7402, 72 h
HL-60 = experiment: Antiproliferative activity against human HL-60 cells after 72 hrs by MTT assay; type: functional, cell-based; conditions: HL-60, 72 h

| Structure (SMILES) | IC50 (Bel-7402) [nM] | IC50 (HL-60) [nM] |
| --- | --- | --- |
| COc1cc2c3c(c4ccc(OC(=O)/C=C/c5ccc6c(c5)OCO6)cc4c2cc1OC)CN1CCC[C@@H]1C3 | 185 | 153 |
| COc1cc2c3c(c4ccc(OC(=O)c5cccs5)cc4c2cc1OC)CN1CCC[C@@H]1C3 | 83 | 472 |
| COc1cc2c3c(c4ccc(OCCO)cc4c2cc1OC)CN1CCC[C@H]1C3 | 374 | 220 |
| COc1cc2c3c(c4ccc(OC(=O)c5cccc6nnsc56)cc4c2cc1OC)CN1CCC[C@@H]1C3 | 173 | 227 |
| COc1cc2c3c(c4ccc(OC(C)=O)cc4c2cc1OC)CN1CCC[C@H]1C3 | 1110 | 756 |
| COc1cc2c3c(c4ccc(OCCO)cc4c2cc1OC)CN1CCC[C@@H]1C3 | 98 | 81 |
| COc1cc2c3c(c4ccc(OC(=O)N(C)C)cc4c2cc1OC)CN1CCC[C@H]1C3 | > 10000 | > 10000 |
| COc1cc2c3c(c4ccc(OC(=O)N(C)C)cc4c2cc1OC)CN1CCC[C@@H]1C3 | 8260 | 2830 |
| COc1cc2c3c(c4ccc(OCCOC(=O)[C@H](C)N)cc4c2cc1OC)CN1CCC[C@@H]1C3 | 642 | 494 |
| COc1cc2c3c(c4ccc(OC(=O)/C=C/C=C/c5ccc6c(c5)OCO6)cc4c2cc1OC)CN1CCC[C@@H]1C3 | 199 | 56 |
| COc1cc2c3c(c4ccc(OCCOC(=O)[C@@H]5CCCN5)cc4c2cc1OC)CN1CCC[C@@H]1C3 | 280 | 233 |
| CC[C@H](C)[C@H](N)C(=O)OCCOc1ccc2c3c(c4cc(OC)c(OC)cc4c2c1)C[C@H]1CCCN1C3 | 584 | 505 |
| COc1cc2c3c(c4ccc(OC(=O)c5ccccc5N)cc4c2cc1OC)CN1CCC[C@@H]1C3 | 83 | 25 |
| COc1cc2c3c(c4ccc(OC(=O)c5ccccc5)cc4c2cc1OC)CN1CCC[C@H]1C3 | 1090 | 800 |
| COc1cc2c3c(c4ccc(O)cc4c2cc1OC)CN1CCC[C@H]1C3 | 292 | 50 |
| COc1cc2c3c(c4ccc(OC(=O)C(C)C)cc4c2cc1OC)CN1CCC[C@@H]1C3 | 60 | 106 |
| COc1cc2c3c(c4ccc(OC(=O)c5cccnc5)cc4c2cc1OC)CN1CCC[C@H]1C3 | 1770 | 762 |
| COc1cc2c3c(c4ccc(OCCOC(=O)[C@H](C)N)cc4c2cc1OC)CN1CCC[C@H]1C3 | 2830 | 1080 |
| COc1cc2c3c(c4ccc(OCCOC(=O)[C@@H](N)C(C)C)cc4c2cc1OC)CN1CCC[C@@H]1C3 | 974 | 908 |

| Structure (SMILES) | IC50 (Bel-7402) [nM] | IC50 (HL-60) [nM] |
| --- | --- | --- |
| COc1cc2c3c(c4ccc(OC(=O)c5ccccc5)cc4c2cc1OC)CN1CCC[C@@H]1C3 | 428 | 455 |
| CCOC(=O)Oc1ccc2c3c(c4cc(OC)c(OC)cc4c2c1)C[C@H]1CCCN1C3 | 105 | 66 |
| COc1cc2c3c(c4ccc(OC(=O)C(C)(C)C)cc4c2cc1OC)CN1CCC[C@H]1C3 | 1540 | 219 |
| COc1cc2c3c(c4ccc(OC(=O)C(C)C)cc4c2cc1OC)CN1CCC[C@H]1C3 | 1590 | 683 |
| COc1cc2c3c(c4ccc(OCCOC(=O)[C@@H](N)CC(C)C)cc4c2cc1OC)CN1CCC[C@@H]1C3 | 1270 | 580 |
| COc1cc2c3c(c4ccc(OCCOC(=O)[C@@H](N)Cc5c[nH]c6ccccc56)cc4c2cc1OC)CN1CCC[C@@H]1C3 | 248 | 112 |
| COc1cc2c3c(c4ccc(OCCOC(=O)[C@@H](N)Cc5ccccc5)cc4c2cc1OC)CN1CCC[C@@H]1C3 | 669 | 568 |
| COc1cc2c3c(c4ccc(OC(C)=O)cc4c2cc1OC)CN1CCC[C@@H]1C3 | 228 | 44 |
| COc1cc2c3c(c4ccc(OC(=O)c5ccco5)cc4c2cc1OC)CN1CCC[C@@H]1C3 | 504 | 178 |
| COc1cc2c3c(c4ccc(OC(=O)C5CC5)cc4c2cc1OC)CN1CCC[C@H]1C3 | 877 | 611 |
| COc1cc2c3c(c4ccc(OCC#N)cc4c2cc1OC)CN1CCC[C@H]1C3 | 200 | 301 |
| COc1cc2c3c(c4ccc(OC(=O)C(C)(C)C)cc4c2cc1OC)CN1CCC[C@@H]1C3 | 294 | 245 |
| COc1cc2c3c(c4ccc(OC(=O)C5CCCCC5)cc4c2cc1OC)CN1CCC[C@@H]1C3 | 235 | 674 |
| CCOC(=O)Oc1ccc2c3c(c4cc(OC)c(OC)cc4c2c1)C[C@@H]1CCCN1C3 | 2080 | 379 |
| COc1cc2c3c(c4ccc(OC(=O)C5CC5)cc4c2cc1OC)CN1CCC[C@@H]1C3 | 765 | 181 |
| COc1cc2c3c(c4ccc(OC(=O)c5cccnc5)cc4c2cc1OC)CN1CCC[C@@H]1C3 | 133 | 179 |
| COc1cc2c3c(c4ccc(OCCOC(=O)[C@@H](N)Cc5ccccc5)cc4c2cc1OC)CN1CCC[C@H]1C3 | 2280 | 600 |
| COc1cc2c3c(c4ccc(OCCOC(=O)[C@@H](N)C(C)C)cc4c2cc1OC)CN1CCC[C@H]1C3 | > 10000 | 7800 |
| COc1cc2c3c(c4ccc(O)cc4c2cc1OC)CN1CCC[C@@H]1C3 | 26 | 4 |

Source: ChEMBL document CHEMBL4665661, “Design, synthesis, and biological activity evaluation of (-)-6-O-desmethylantofine analogues as potent anti-cancer agents” (Bioorg Med Chem, 2019)
